Laboratory results taken from US20230091336A1, “CANNABINOID COMPOSITIONS” (priority 2020, published 2023).
“Also recorded” adds a separate entry of the source.

Legend:
UUO mice = test: Unilateral Ureteral Obstruction (UUO) mouse model of kidney fibrosis; assay type: in vivo; conditions: for interstitial area increase in UUO kidneys: FIG. 19D; for macrophage infiltration in UUO kidneys (F4/80): FIG. 20B; for α-SMA production in UUO kidneys vs vehicle (immunostaining): FIG. 24B; for urine / water intake / body weight / kidney weight CLK / kidney weight UUO: UUO mice at day 7; for urine / water intake / kidney weight CLK / kidney weight UUO: 10 mg/kg i.p. daily; for body weight: 10 mg/kg i.p. daily day 0 to day 6, n = 5; for magnesium output in urine vs vehicle: 24 h urine, FIG. 18; for kidney weight CLK: contralateral kidney; for phosphorylated Smad3 protein in UUO kidneys (Western blotting) / α-SMA protein in UUO kidneys (Western blotting): cortical kidney tissue, FIG. 23; for collagen type I production in UUO kidneys vs vehicle / fibronectin production in UUO kidneys vs vehicle: immunostaining; for collagen type I production in UUO kidneys vs vehicle: FIG. 21B; for fibronectin production in UUO kidneys vs vehicle: FIG. 22B; for tubular dilation in UUO kidneys: number of dilated tubules per field, FIG. 19B; for kidney weight UUO: obstructed kidney; for tubule loss in UUO kidneys: total number of renal tubules per field, FIG. 19C
Description: The Unilateral Ureteral Obstruction (UUO) model is a mouse model of kidney disease that is associated with and characterized by progressive tubulointerstitial injury and fibrosis. This model can be used to identify many of the molecular and cellular events that occur in progressive kidney fibrosis. […] TRPM7 represents a promising therapeutic target in kidney fibrosis and TRPM7 inhibitors may act as anti-fibrotic pharmacological tools.
C57BL/6 male mice (6 wks weighing 20-25 g) were used in the UUO model. Under isoflurane (3.0% for induction and 1.5% for maintenance) anesthesia, ureteral obstruction was achieved by ligating the left ureter with a 3-0 silk suture through a left lateral incision. Control and experimental groups for these experiments were created as follows:
Group 1: Control (5 mL/kg body weight) 5% ethanol and 5% Tween80 in 0.9% NaCl
Group 2: CBGA (10 mg/kg body weight) 2 mg/mL in 5% ethanol, 5% Tween80 and 0.9% NaCl
Group 3: CBD (10 mg/kg body weight) 2 mg/mL in 5% ethanol, 5% Tween80 and 0.9% NaCl
Group 4: CBGA (10 mg/kg body weight)+CBD (10 mg/kg body weight), 2 mg/mL each in 5% ethanol, 5% Tween80 and 0.9% NaCl
Mice were injected once daily with 10 mg/kg cannabinoids (CBGA, CBD, or both) as well as vehicle control daily beginning immediately after surgery and until Day 6. Mice were euthanized at Day 7 after surgery. Obstructed kidneys (UUO) and non-obstructed contralateral kidneys (CLK) were collected and stored.
FIGS. 19A-19D depict the protection of kidney structure following cannabinoid treatment, as observed during experiments.
Immunohistochemical analysis. To evaluate renal fibrosis in UUO kidneys, immunoreactivities of F4/80 (macrophage marker), collagen type I, fibronectin, and α-smooth muscle actin (α-SMA) were determined using a standard biotin-streptavidin-peroxidase method. The staining-positive areas were calculated by Image J. The threshold was set to automatically compute the positive areas for each staining and the ratio of the positive areas to the whole interstitial area. Number of macrophages (FIG. 20A and FIG. 20B), collagen type I production in stained kidney tissue (FIG. 21A and FIG. 21B), and fibronectin production in stained kidney tissue (FIG. 22A and FIG. 22B) were quantified in UUO kidneys, showing that extracellular matrix production and/or deposition in kidney tissue were also affected with CBGA treatment.

TRPM7 [1] = target: T1, TRPM7 (Homo sapiens, UniProt Q96QT4); test: Whole-cell patch clamp of TRPM7 outward current in Jurkat cells; assay type: cell-based; set-up: endogenous in cells; host or cells: Jurkat; conditions: 10 μM
Experimental: (§1) Inward CRAC currents were induced at −120 mV (gray trace) and outward currents at +40 mV (black trace, where CRAC currents reverse and are essentially absent). At the +40 mV voltage potential, TRPM7 channels produce monovalent outward currents. Perfusion of 50 μM IP3 activates ICRAC at −120 mV as above and the removal of intracellular ATP slowly activates TRPM7 current at +40 mV. Application of 10 μM CBGA blocks both outward TRPM7 and inward CRAC currents (see FIG. 13, black and gray traces, respectively). Without being bound by theory, CBGA may also block TRPM7's kinase activity, similar to other TRPM7 blockers such as NS8593.
Target sequence in this assay (Q96QT4 whole entry, the tested form may be a part): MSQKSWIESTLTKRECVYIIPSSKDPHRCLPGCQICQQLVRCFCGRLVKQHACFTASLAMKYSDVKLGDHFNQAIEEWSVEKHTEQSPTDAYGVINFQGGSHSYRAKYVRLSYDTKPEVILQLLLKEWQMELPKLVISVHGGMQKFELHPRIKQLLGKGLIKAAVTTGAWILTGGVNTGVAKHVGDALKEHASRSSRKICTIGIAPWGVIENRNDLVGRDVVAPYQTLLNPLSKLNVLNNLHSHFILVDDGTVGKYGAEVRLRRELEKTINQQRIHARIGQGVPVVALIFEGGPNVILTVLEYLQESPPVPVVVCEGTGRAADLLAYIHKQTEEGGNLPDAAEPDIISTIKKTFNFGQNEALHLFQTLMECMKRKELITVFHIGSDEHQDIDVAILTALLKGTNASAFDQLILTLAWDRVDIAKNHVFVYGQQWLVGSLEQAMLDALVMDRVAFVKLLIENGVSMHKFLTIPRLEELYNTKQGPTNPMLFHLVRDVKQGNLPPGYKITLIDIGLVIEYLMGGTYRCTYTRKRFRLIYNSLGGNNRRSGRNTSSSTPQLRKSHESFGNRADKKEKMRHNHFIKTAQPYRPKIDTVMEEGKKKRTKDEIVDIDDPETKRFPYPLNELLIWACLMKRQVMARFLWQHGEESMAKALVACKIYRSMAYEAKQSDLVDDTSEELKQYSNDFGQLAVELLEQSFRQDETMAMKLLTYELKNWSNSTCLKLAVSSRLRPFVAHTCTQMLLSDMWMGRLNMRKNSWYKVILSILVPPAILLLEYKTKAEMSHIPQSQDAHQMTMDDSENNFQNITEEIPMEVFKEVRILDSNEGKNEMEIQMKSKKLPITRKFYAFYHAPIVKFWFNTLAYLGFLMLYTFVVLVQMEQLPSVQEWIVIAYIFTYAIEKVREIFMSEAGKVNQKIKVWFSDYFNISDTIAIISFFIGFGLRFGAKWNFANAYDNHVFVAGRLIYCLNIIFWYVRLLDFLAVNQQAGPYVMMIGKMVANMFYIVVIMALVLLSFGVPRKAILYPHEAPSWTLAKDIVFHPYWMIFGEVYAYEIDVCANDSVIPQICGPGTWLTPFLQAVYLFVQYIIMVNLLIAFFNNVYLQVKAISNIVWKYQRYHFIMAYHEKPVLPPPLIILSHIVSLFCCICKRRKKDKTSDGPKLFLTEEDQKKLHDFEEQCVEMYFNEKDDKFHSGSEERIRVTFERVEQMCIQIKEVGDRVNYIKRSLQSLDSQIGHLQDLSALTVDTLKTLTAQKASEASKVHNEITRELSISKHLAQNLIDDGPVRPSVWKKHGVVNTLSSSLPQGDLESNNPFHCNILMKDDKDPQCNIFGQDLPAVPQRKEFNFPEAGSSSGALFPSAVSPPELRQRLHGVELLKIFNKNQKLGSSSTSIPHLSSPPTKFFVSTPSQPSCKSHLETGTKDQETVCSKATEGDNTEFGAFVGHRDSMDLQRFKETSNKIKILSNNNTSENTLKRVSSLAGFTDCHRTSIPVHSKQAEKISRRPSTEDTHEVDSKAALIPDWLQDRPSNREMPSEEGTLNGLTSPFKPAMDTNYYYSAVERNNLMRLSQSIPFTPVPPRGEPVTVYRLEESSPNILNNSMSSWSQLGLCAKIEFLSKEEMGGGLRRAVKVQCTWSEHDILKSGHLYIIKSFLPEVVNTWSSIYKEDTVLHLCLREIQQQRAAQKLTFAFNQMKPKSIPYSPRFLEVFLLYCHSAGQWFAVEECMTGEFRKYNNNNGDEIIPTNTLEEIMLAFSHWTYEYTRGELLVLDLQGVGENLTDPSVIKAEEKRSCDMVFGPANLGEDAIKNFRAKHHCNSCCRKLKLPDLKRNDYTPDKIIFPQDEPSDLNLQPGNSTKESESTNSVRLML

TRPM7 [2] = target: T1, TRPM7; test: Whole-cell patch clamp of TRPM7 over-expressed in HEK293 cells; assay type: cell-based; set-up: expressed in transfected cells; host or cells: HEK293; conditions: HEK293 over-expressing TRPM7
Experimental: Activation of TRPM7 over-expressed in HEK293 cells by perfusing the cells with intracellular solution containing 0 ATP and 0 Mg^2+, resulting in fast and maximal activation of TRPM7 outward currents at +40 mV is shown in FIG. 14.
(§2) Data from dose-response curves for the inhibition of TRPM7 currents (dark gray symbols) obtained in experiments shown in FIG. 14 and SOCE-mediated increases in intracellular Ca^2+ (light gray symbols) are shown in FIG. 15.
Target sequence in this assay (Q96QT4 whole entry, species assumed, the tested form may be a part): as the sequence (Q96QT4 whole entry, the tested form may be a part) above

CRAC channels (ICRAC) = test: Whole-cell patch clamp of IP3-induced ICRAC in Jurkat cells; assay type: cell-based, human; conditions: 10 μM, 50 μM IP3
Experimental: The ability of CBGA to inhibit store-operated calcium entry (SOCE) within cells was experimentally interrogated (see FIG. 12). Jurkat cells were perfused with 50 μM IP3 to induce store depletion and activation of CRAC channels (the resulting Ca^2+ inward current is known as ICRAC). ICRAC is a long-lasting inward current at −120 mV membrane potential (black trace) that can be blocked by 10 μM CBGA (gray trace).
as §1

[3] = test system: SOCE-mediated increases in intracellular Ca^2+; test: SOCE dose-response of CBGA (FIG. 15); assay type: cell-based; conditions: read-out: IC50 inhibition of SOCE-mediated increases in intracellular Ca^2+
Description: as §2

C=C(C)[C@@H]1CCC(C)=C[C@H]1c1c(O)cc(CCCCC)cc1O [CBD, (1′R,2′R)-5′-methyl-4-penlyl-2′-(prop-1-en-2-yl)-1′,2′,3′,4′-tetrahydro-[1,1′-biphenyl]-2,6-diol]
interstitial area increase in UUO kidneys (UUO mice): inhibited interstitial area increase | macrophage infiltration in UUO kidneys (F4/80) (UUO mice): strongly inhibited macrophage infiltration | α-SMA production in UUO kidneys vs vehicle (immunostaining) (UUO mice): inhibited | urine (UUO mice): 2.01 ± 0.44 mL | water intake (UUO mice): 4.9 ± 0.4 mL | body weight (UUO mice): 22.08 ± 0.45 g | magnesium output in urine vs vehicle (UUO mice; UUO mice day 7): recovered | kidney weight CLK (UUO mice): 175 ± 0.7 mg | phosphorylated Smad3 protein in UUO kidneys (Western blotting) (UUO mice): suppressed | α-SMA protein in UUO kidneys (Western blotting) (UUO mice): suppressed | collagen type I production in UUO kidneys vs vehicle (UUO mice): inhibit | fibronectin production in UUO kidneys vs vehicle (UUO mice): inhibit | tubular dilation in UUO kidneys (UUO mice): inhibited tubular dilation | kidney weight UUO (UUO mice): 172 ± 0.8^ mg | tubule loss in UUO kidneys (UUO mice): inhibited tubule loss

CCCCCc1cc(O)c(C/C=C(\C)CCC=C(C)C)c(O)c1C(=O)O [CBGA, (E)-3-(3,7-dimethylocta-2,6-dien-1-yl)-2,4-dihydroxy-6-pentylbenzoic acid]
interstitial area increase in UUO kidneys (UUO mice): inhibited increases in interstitial area | macrophage infiltration in UUO kidneys (F4/80) (UUO mice): inhibited macrophage infiltration | α-SMA production in UUO kidneys vs vehicle (immunostaining) (UUO mice): inhibited | urine (UUO mice): 1.88 ± 0.17 mL | water intake (UUO mice): 4.7 ± 0.2 mL | body weight (UUO mice): 21.55 ± 0.60 g | kidney atrophy / loss of UUO kidney weight vs vehicle (UUO mice; UUO mice day 7, 10 mg/kg daily, FIG. 17B, 10 mg/kg): less kidney atrophy; also recorded: ameliorated the loss of kidney weight | magnesium output in urine vs vehicle (UUO mice; UUO mice day 7): recovered | recovery of body weight loss vs vehicle (UUO mice; UUO mice, 10 mg/kg daily, FIG. 16): faster recovery of body weight loss | kidney weight CLK (UUO mice): 167 ± 0.7 mg | phosphorylated Smad3 protein in UUO kidneys (Western blotting) (UUO mice): suppressed | α-SMA protein in UUO kidneys (Western blotting) (UUO mice): suppressed | collagen type I production in UUO kidneys vs vehicle (UUO mice): inhibited | fibronectin production in UUO kidneys vs vehicle (UUO mice): inhibited | tubular dilation in UUO kidneys (UUO mice): inhibited tubular dilation | kidney weight UUO (UUO mice): 163 ± 0.9^ mg | tubule loss in UUO kidneys (UUO mice): inhibited tubule loss | block of outward TRPM7 current at +40 mV (TRPM7 [1]): blocks | block of TRPM7 current at +40 mV (TRPM7 [2]; 1, 3, 10 or 30 μM, 0 ATP, 0 Mg^2+): dose-dependent block | IC50 (TRPM7 [2]; FIG. 15, read-out: IC50 inhibition of TRPM7 currents): ~3000 nM | block of inward calcium current ICRAC at −120 mV (CRAC channels (ICRAC)): completely blocks | IC50 [3]: ~2000 nM
